Patent US11530217B1, “Antitubercular compounds” (priority 2022, dated 2022)
Values after ≈ are worked out from the molar mass of the structure shown.

System: rifampicin and isoniazid-resistant MTB strain (MDR-MTB)
Test: microbe, parasite or virus in culture
Format: cell-based
Details: Mycobacterium tuberculosis, 192 h, read-out: MIC (μg/mL) MDR-MTB

SMILES	MIC [µg/mL]
COC(=O)c1c(C(=O)OC)c2c(C)cc(C)cn2c1C(=O)c1ccc(OC)cc1 [Compound 5b, Dimethyl 3-(4-methoxybenzoyl)-6,8-dimethylindolizine-1,2-dicarboxylate]	64 (≈ 162 µM)
CCOC(=O)c1cc(C(=O)c2ccc(Cl)cc2)n2cc(C)cc(C)c12 [Compound 5c, Ethyl 3-(4-chlorobenzoyl)-6,8-dimethylindolizine-1-carboxylate]	1 (≈ 2.81 µM)
COC(=O)c1c(C(=O)OC)c2c(C)cc(C)cn2c1C(=O)c1ccc(Cl)cc1 [Compound 5d, Dimethyl 3-(4-chlorobenzoyl)-6,8-dimethylindolizine-1,2-dicarboxylate]	64 (≈ 160 µM)
CCOC(=O)c1cc(C(=O)c2ccc(F)cc2)n2cc(C)cc(C)c12 [Compound 5g, Ethyl 3-(4-fluorobenzoyl)-6,8-dimethylindolizine-1-carboxylate]	4 (≈ 11.8 µM)
CCOC(=O)c1cc(C(=O)c2ccccc2[N+](=O)[O-])n2cc(C)cc(C)c12 [Compound 5h, Ethyl 6,8-dimethyl-3-(2-nitrobenzoyl)indolizine-1-carboxylate]	4 (≈ 10.9 µM)
CCOC(=O)c1cc(C(=O)c2cc(C(F)(F)F)cc(C(F)(F)F)c2)n2cc(C)cc(C)c12 [Compound 5i, Ethyl 3-(3,5-bis(trifluoromethyl)benzoyl)-6,8-dimethylindolizine-1-carboxylate]	16 (≈ 35 µM)
CCOC(=O)c1cc(C(=O)c2ccc(C#N)cc2)n2cc(C)cc(C)c12 [Compound 5j, Ethyl 3-(4-cyanobenzoyl)-6,8-dimethylindolizine-1-carboxylate]	4 (≈ 11.5 µM)
CCOC(=O)c1cc(C(=O)c2ccc(C)cc2)n2cc(C)cc(C)c12 [Compound 5k, Ethyl 6,8-dimethyl-3-(4-methylbenzoyl)indolizine-1-carboxylate]	4 (≈ 11.9 µM)
COC(=O)c1c(C(=O)OC)c2c(C)cc(C)cn2c1C(=O)c1ccc(C#N)cc1 [Compound 5l, Dimethyl 3-(4-cyanobenzoyl)-6,8-dimethylindolizine-1,2-dicarboxylate]	8 (≈ 20.5 µM)
COC(=O)c1c(C(=O)OC)c2c(C)cc(C)cn2c1C(=O)c1ccc(C)cc1 [Compound 5m, Dimethyl 6,8-dimethyl-3-(4-methylbenzoyl)indolizine-1,2-dicarboxylate]	1 (≈ 2.64 µM)
